{
  "source": "ChEMBL document CHEMBL1133289",
  "about": "“The binding of cocaine to cyclodextrins” (Bioorg Med Chem Lett, 2000)",
  "key": {"[1]": {"assay": "Binding constant towards Beta-cyclodextrin"}, "[2]": {"assay": "Binding constant towards alpha-cyclodextrin"}, "[3]": {"assay": "(§1) Binding constant towards Beta-cyclodextrin at pH 7.4 in unbuffered water at 25 C in a one-to-one complex"}, "[4]": {"assay": "as §1", "remark": "listed apart in the source"}, "[5]": {"assay": "Binding constant towards gamma-cyclodextrin"}},
  "data": [
    {"smiles": "CN1[C@@H]2CC[C@H]1C[C@H](OC(=O)c1ccccc1)C2", "note": "(stereo in doubt; 8)", "values": [
      {"measurement": "Binding constant", "setting": "[1]", "result": 1120, "unit": "M⁻¹"}
    ]},
    {"smiles": "CN1[C@@H]2CC[C@H]1C[C@H](OC(=O)c1ccccc1)C2", "note": "(stereo in doubt; 9)", "values": [
      {"measurement": "Binding constant", "setting": "[1]", "result": 500, "unit": "M⁻¹"}
    ]},
    {"smiles": "COC(=O)[C@H]1[C@@H](OC(=O)c2ccccc2)C[C@@H]2CC[C@H]1N2C", "note": "[COCAINE]", "values": [
      {"measurement": "Binding constant", "setting": "[2]", "result": "< 60", "unit": "M⁻¹"},
      {"measurement": "Binding constant", "setting": "[3]", "result": 570, "unit": "M⁻¹"},
      {"measurement": "Kd", "setting": "[4]", "result": 1750, "unit": "µM"},
      {"measurement": "Binding constant", "setting": "[5]", "result": "< 60", "unit": "M⁻¹"}
    ]}
  ]
}
